Assay results: patent US12441690B2, “Benzamide derivative compound, method for preparing same, and pharmaceutical composition for treating or preventing inflammatory disease containing same as active ingredient” (SEOUL NATIONAL UNIVERSITY R&DB FOUNDATION, priority 2017, dated 2025)

Legend:
PDE4B enzyme = PDE4B enzyme (Homo sapiens (Human), UniProt Q07343); experiment: PDE4B inhibitory activity, LANCE Ultra cAMP assay; format: biochemical; conditions: 50% inhibition from cAMP to 5′AMP
Method: In order to evaluate the PDE4B inhibitory activity of the compounds according to the present invention, the following experiment was performed using LANCE Ultra cAMP assay kit (Perkin Elmer, U.S.A).
Particularly, 5 μl of the 3 nM cAMP dissolved reaction buffer was added to each reaction well (LANCE Ultra cAMP assay kit). Then, each example compound dilution solution (2.5 μl) and PDE4B enzyme (0.1 ng/well, BPS Biosciences, San Diego, U.S.A) were added to the well, followed by incubation for 1 hour at 37° C. Next, 5 μl of ULight-anti-cAMP detection reactant supplemented with 5 μl of Eu-cAMP tracer and 1 mM IBMX (LANCE Ultra cAMP assay kit) was added thereto, followed by incubation for 1 hour at 37° C.

[1] = target: PDE4B GFP fusion protein (human PDE4B2A) (Homo sapiens (Human), UniProt Q07343); experiment: PDE4B GFP fusion protein-inhibitor assay in HEK-293 cells; format: cell-based
Sequence of PDE4B GFP fusion protein (human PDE4B2A) (Q07343 other isoform, or with tags, fused parts or gaps): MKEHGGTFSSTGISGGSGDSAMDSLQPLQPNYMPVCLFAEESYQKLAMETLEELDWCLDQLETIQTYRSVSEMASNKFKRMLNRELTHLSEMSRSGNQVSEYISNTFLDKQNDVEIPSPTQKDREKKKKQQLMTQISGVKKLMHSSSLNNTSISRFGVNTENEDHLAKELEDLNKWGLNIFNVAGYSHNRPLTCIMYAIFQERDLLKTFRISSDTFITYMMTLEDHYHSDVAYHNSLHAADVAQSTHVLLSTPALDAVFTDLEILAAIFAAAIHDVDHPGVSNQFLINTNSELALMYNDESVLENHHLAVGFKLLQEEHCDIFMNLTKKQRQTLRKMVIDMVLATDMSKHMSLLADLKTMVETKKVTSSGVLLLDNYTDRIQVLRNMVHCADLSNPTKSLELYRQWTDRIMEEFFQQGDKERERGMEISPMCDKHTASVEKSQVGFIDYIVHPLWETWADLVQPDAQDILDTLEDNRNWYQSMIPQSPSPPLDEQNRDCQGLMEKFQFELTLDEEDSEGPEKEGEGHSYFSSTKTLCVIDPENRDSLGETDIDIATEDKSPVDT
Method: To evaluate the intracellular enzyme inhibitory activity of the compounds of Examples 1 and 25, PDE4B GFP fusion protein-inhibitor assay was performed using GFP (green fluorescent protein).
The DNA complementary to human PDE4B2A was amplified by PCR using the DNA genome extracted from the human blood sample (QIAamp DNA Blood Mini Kit, Qiagen, Valencia, CA, U.S.A.).
For DNA amplification, 5′-[…]-3′ was used as a forward primer, and 5′-[…]-3′ was used as a reverse primer.
The amplified PDE4B2A cDNA was cloned into pAcGFP1-N1, the mammalian expression mediator, between the EcoR1 and BamH1 restriction enzyme sites, which was transfected into E. coli DH5α cells using chemical transformation reagents (Invitrogen, Carlsbad, CA, U.S.A.).
Plasmids were isolated from the colonies with kanamycin using Plasmid Midi Kit (Qiagen, Valencia, CA, U.S.A.). Then, the plasmid cloned with PDE4B2A gene was transfected into HEK-293 cells (Korean Cell Line Bank, Seoul, Korea) using lipofectamine 3000 (Invitrogen).
The transfected cells were cultured in DMEM at 37° C. for 48 hours in a CO2 incubator. […] Upon completion of the culture, the fluorescence emission of HEK-293 cells was measured by confocal microscopy to perform quantitative analysis, and the results are shown in FIGS. 1 and 2.
In addition, the ratio of the surface cover area of GFP to the total cell surface area was measured using MetaMorph software, and the results are shown in FIG. 2.

[2] = system: Nc/Nga mice treated with DNCB; experiment: Relief of atopic symptoms in Nc/Nga mice treated with DNCB; format: in vivo, mouse; conditions: for weight of the spleen: DNCB-treated mice; for lymph node size / number of scratches for 20 minutes / symptoms of hypertrophy and edema of incised dorsal skin / weight of the lymph node: compared to mouse treated with DNCB alone; for skin thickness: incised dorsal skin, DNCB alone 1.19 mm, control 0.45 mm; for side effects: mouse treated with the compound alone, applied on dorsal skin; for incidence of inflammation on the dorsal skin: treated together with DNCB, compared to DNCB only, last day of experiment; for dermatitis score at week 5: treated with DNCB, total of 12 points
Method: In order to confirm the atopic dermatitis alleviation effect of the compounds of Examples 1 and 25 according to the present invention, atopic symptom relief experiments were performed on the mice with atopic symptoms.
DNCB (dinitrochlorobenzene) was applied on the back of Nc/Nga mouse to induce atopic dermatitis-like symptoms.
As a carrier for treating DNCB, acetone-olive oil in which acetone and olive oil were mixed (3:1) was used. Six groups of mice were prepared as follows: mice treated with the carrier alone; mice treated with Example 1 compound, mice treated with Example 25 compound, mice treated with DNCB alone, mice treated with DNCB and Example 1 compound, and mice treated with DNCB and Example 25 compound.
Particularly, 2 days before the start of the experiment, hair of the dorsal skin of the mouse was removed. After 2 days after removing the hair, 150 μl of 1% DNCB was dissolved in a carrier and applied on the dorsal skin of the mouse. Four days later, the same solution was applied on the dorsal skin of the mouse once again. Then, 150 μl of 0.2% DNCB solution was applied on the dorsal skin of the mouse once a week for 5 weeks. The experimental group mice were applied with the compounds of Example 1 and Example 25 daily from the 6th day of the experiment to the end of the experiment.
The degree of atopic symptoms in the experimental group and control group mice was evaluated and quantified once a week for a period of 5 weeks. Scores were given as follows for the four items of erythema/bleeding, edema, threshing/corrosion, scaling/dryness, respectively: 1 (none); 2 (moderate); and 3 (serious). Each experimental group and control group was scored based on a total of 12 points.
In order to confirm the effect of the compounds according to the present invention on relieving itching, the number of scratches for 20 minutes of each mouse of the experimental group and control group was measured, and the results are shown graphically in FIG. 5(a), (b).
After completing the experiment, the physical changes were observed by incising the dorsal skin of the experimental group and control group mice. As a result, hypertrophy and edema were clearly observed in the mouse treated with DNCB alone.
In addition, to confirm the alleviating effect of the compounds according to the present invention on skin hypertrophy, the incised skin thickness was measured, and the results are shown graphically in FIG. 5(b).
In order to confirm the effect of the compounds according to the present invention, the lymph node of each mouse of the experimental group and control group was separated and observed. The lymph node is an interaction site between the antigen and immune cells, and since the size of the lymph node increases during the development of inflammatory symptoms, it is possible to confirm the presence or absence of inflammatory disease depending on the size of the lymph node. The photographs of the separated lymph node of each mouse of the experimental group and control group are shown in FIG. 6(a), and the weight of the lymph node and the spleen of each mouse of the experimental group and control group are shown in FIG. 6(b) and FIG. 6(c).

[3] = system: dorsal skin tissue of Nc/Nga mice treated with DNCB; experiment: Observation of mouse dorsal skin tissue (H&E, toluidine blue, CD4+ cell staining); format: in vivo; conditions: for expression of IFN-γ in CD4+ cells / expression of IL-4 of CD4+ cells / expression of IL-5 of CD4+ cells / expression of IL-17 of CD4+ cells: applied on the skin; for expression of IL-4 of CD4+ cells / expression of IL-5 of CD4+ cells / expression of IL-17 of CD4+ cells: compared to DNCB alone; for number of mast cells in skin tissue (toluidine blue): compared to mouse treated with DNCB alone; for skin structure of tissue sections (H&E): groups treated with the compound without DNCB; for epidermal hyperplasia and keratosis (H&E) / inflammatory cells in skin sections (H&E): treated with DNCB
Method: The dorsal skin samples were obtained from the experimental group and control group mice. The samples were fixed using 10% neutral buffered formalin and then embedded in paraffin. 4 μm thin tissue sections were prepared and stained with H & E (hematoxylin & eosin). […] In addition, the sections were stained with toluidine blue to investigate mast cell infiltration. Then, the stained tissue sections were photographed using NikonAX70 optical microscope (Tokyo, Japan).
In addition, the mouse tissue CD4+ cells were stained to confirm the expressions of IL-17, IFN-γ, IL-4 and IL-5.

[4] = system: IL-4, IL-5, IFN-γ, IL-17 and IgE in mouse skin tissues; experiment: Sandwich ELISA with mouse skin tissues; format: in vivo; conditions: for expression of IL-4 (ELISA) / expression of IL-5 (ELISA) / expression of IL-17 (ELISA): DNCB; for expression of IgE (ELISA): treated with DNCB
Method: To confirm the effect of the compounds according to the present invention on the synthesis of DNCB-induced IgE and inflammatory mediators, ELISA (Enzyme-Linked ImmunoSorbent Assay) was performed with the control group and the experimental group treated with the compounds of Example 1 and Example 25.
FIG. 11(a)-FIG. 11(e) are graphs showing the expression levels of IL-4, IL-5, IFN-γ, IL-17 and IgE, respectively, shown when performing sandwich ELISA (Enzyme-Linked ImmunoSorbent Assay) with the mouse skin tissues.

[5] = system: TNF-α secretion in human PBMC cells; experiment: Inhibition of TNF-α synthesis in LPS-stimulated human PBMC cells; format: cell-based; conditions: human PBMC cells stimulated using bacterial LPS
Method: In addition, to evaluate the inhibitory effect of the compounds of Example 1 and Example 25 on the synthesis of TNF-α, in vitro assay was performed. Particularly, after culturing human PBMC cells, the secretion of TNF-α was stimulated using bacterial LPS, and the expression level of TNF-α was measured.

[6] = 24 hours, compared to control group not-treated with any inhibitor
[7] = at the concentrations of 100 nM and 500 nM

Sequence of PDE4B enzyme (Q07343 whole entry): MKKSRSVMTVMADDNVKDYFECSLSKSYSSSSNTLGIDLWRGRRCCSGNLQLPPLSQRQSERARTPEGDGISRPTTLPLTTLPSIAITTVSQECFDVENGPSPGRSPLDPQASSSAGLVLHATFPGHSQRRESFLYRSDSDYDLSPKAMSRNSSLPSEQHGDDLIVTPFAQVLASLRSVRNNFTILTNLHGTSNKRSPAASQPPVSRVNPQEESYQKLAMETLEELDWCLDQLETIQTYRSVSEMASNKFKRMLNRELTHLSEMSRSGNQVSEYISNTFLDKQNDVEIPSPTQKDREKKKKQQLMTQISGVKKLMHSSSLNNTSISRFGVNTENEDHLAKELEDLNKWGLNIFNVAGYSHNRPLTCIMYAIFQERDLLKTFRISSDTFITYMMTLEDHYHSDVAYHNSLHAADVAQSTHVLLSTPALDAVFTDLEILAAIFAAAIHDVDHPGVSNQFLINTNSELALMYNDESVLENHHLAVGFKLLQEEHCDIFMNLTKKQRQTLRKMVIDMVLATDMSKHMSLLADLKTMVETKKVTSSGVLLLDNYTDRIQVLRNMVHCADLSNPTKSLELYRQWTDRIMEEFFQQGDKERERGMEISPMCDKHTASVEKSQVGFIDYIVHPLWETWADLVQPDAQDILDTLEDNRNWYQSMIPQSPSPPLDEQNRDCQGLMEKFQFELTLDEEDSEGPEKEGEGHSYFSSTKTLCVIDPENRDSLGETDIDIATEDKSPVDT

Row | Compound | IC50 (PDE4B enzyme) [µM] | fluorescence intensity of PDE4B GFP fusion protein [1, 6] | fluorescence intensity of PDE4B GFP fusion protein [1, 7] | weight of the spleen [2] | lymph node size [2] | number of scratches for 20 minutes [2] | symptoms of hypertrophy and edema of incised dorsal skin [2] | weight of the lymph node [2] | skin thickness [2] [mm] | side effects [2] | incidence of inflammation on the dorsal skin [2] | dermatitis score at week 5 [2] | expression of IFN-γ in CD4+ cells [3] | expression of IL-4 of CD4+ cells [3] | expression of IL-5 of CD4+ cells [3] | expression of IL-17 of CD4+ cells [3] | number of mast cells in skin tissue (toluidine blue) [3] | skin structure of tissue sections (H&E) [3] | epidermal hyperplasia and keratosis (H&E) [3] | inflammatory cells in skin sections (H&E) [3] | other results
1 | COc1ccc(-c2nc(C(F)(F)F)ncc2C(=O)Nc2ccncc2)cc1OC [Example 25, 4-(3,4-dimethoxyphenyl)-N-(pyridine-4-yl)-2-(trifluoromethyl)pyrimidine-5-carboxamide] | 0.015 | relatively weak | significantly reduced | significantly reduced | significantly reduced | significantly less | no symptoms of hypertrophy and edema | significantly reduced | 0.71 | no side effects were observed | significantly reduced | less than 3 | activated | more suppressed | more suppressed | more suppressed | significantly reduced | normal skin structure | significantly reduced | almost no inflammatory cells | expression of IFN-γ (ELISA) [4]: high; expression of IL-4 (ELISA) [4]: significantly suppressed; expression of IL-5 (ELISA) [4]: significantly suppressed; expression of IL-17 (ELISA) [4]: significantly suppressed; expression of IgE (ELISA) [4]: significantly reduced; synthesis of TNF-α [5]: effectively inhibited
2 | COc1ccc(NC(=O)c2cnc(SC)nc2N2CCOCC2)cc1OC [Example 1, N-(3,4-dimethoxyphenyl)-2-(methylthio)-4-morpholinopyrimidine-5-carboxamide] | 0.031 | relatively weak | significantly reduced | significantly reduced | significantly reduced | significantly less | no symptoms of hypertrophy and edema | significantly reduced | 0.83 | no side effects were observed | significantly reduced | less than 3 | activated | more suppressed | more suppressed | more suppressed | significantly reduced | normal skin structure | significantly reduced | almost no inflammatory cells | expression of IFN-γ (ELISA) [4]: high; expression of IL-4 (ELISA) [4]: significantly suppressed; expression of IL-5 (ELISA) [4]: significantly suppressed; expression of IL-17 (ELISA) [4]: significantly suppressed; expression of IgE (ELISA) [4]: significantly reduced; synthesis of TNF-α [5]: effectively inhibited
